# Test results: PMC9739695, “Water-Soluble Salts Based on Benzofuroxan Derivatives—Synthesis and Biological Activity” (International Journal of Molecular Sciences, 2022)
# Read-outs that look alike come from different tables or passages of the source.
# Legend:
# [1] = tested on: rice seeds; test: Pre-sowing seed treatment, sowing qualities of rice seeds; assay type: in vivo; settings: for germination energy: control 71.4; for laboratory germination: control 95.2
# Experimental: (§1) When evaluating the effectiveness of treatment of wheat, alfalfa, barley, rice, and sorghum seeds as fungicidal and bactericidal agents with preparation compounds at concentrations of 10, 20, and 40 mmol, their effect on the suppression of seed infection was evaluated.
# (§2) […] The sowing qualities were evaluated (germination energy for 3–4 days, laboratory germination for 7–8 days) according to GOST 12038-84 [60]. Sowing qualities of seeds were determined in wet chambers. According to the sample, 50 seeds were taken in 4-fold repetition.
# [2] = tested on: Hek 293 (human embryonic kidneys); test: Cell viability, MTT test, normal cell line; assay type: cell-based; settings: HEK293, Hek 293 normal cells, test range 0.1 to 100 μM, read-out: IC50 (concentration causing 50% inhibition of cell population growth)
# Experimental: (§3) In this work, the cytotoxic potential of the water-soluble salts based on benzofuroxan was determined by the effect of compounds on the survival of the cell tumor origin cultures (SH-SY5Y, Hep2, A549, HeLa) using the MTT test. To understand how the synthesized compounds can influence the healthy microenvironment in the body, the effect of substances on the viability of a normal Hek 293 cell culture was additionally evaluated.
# (§4) Human cell cultures of tumor origin—SH-SY5Y (neuroblastoma), HeLa (cervical tumor), Hep-2 (larynx carcinoma), A549 (adenocarcinomic human alveolar basal epithelial cells)—and normal cell line Hek 293 (human embryonic kidneys), provided by the Laboratory of Tumor Cell Genetics of the Scientific Research Institute of Carcinogenesis, N.N. Blokhin National Medical Research Center of Oncology, as well as the Institute of Cytology of the Russian Academy of Sciences, were grown in a nutrient medium DMEM (PanEco, Moscow, Russia) and MEM (PanEco, Moscow, Russia), containing fetal bovine serum (10% by volume) (ThermoFisher Scientific, Paisley, UK), Glutamax (2 mM) (Gibco, Scotland, UK), and penicillin-streptomycin (1% by volume) (PanEco, Moscow, Russia). The cultivation was carried out at 37 °C in a humidified CO2 atmosphere (5%).
# (§5) Cell viability was determined by MTT test. Cells were seeded in a 96-well plate in the amount of 1 × 10^4 cells/200µLof complete nutrient medium and cultured at 37 °C in CO2 (5%). After 24 h of incubation, various concentrations of test compounds in the range from 0.1 to 100 μM, were added to the cell cultures, and then the cells were cultured under the same conditions for 24 and 72 h. For each concentration, the experiment was carried out in triplicate.
# (§6) All compounds were dissolved in DMSO, then diluted with the medium to the required concentration. […] The DMSO was also added to the control wells in a volume of 1%. After the incubation time, MTT (3-(4,5-dimethylthiazol-2-yl)-2,5-diphenyltetrazolium bromide, 5 mg/mL) was added to each well and plates were additionally incubated for 2 h (until the characteristic color appeared).
# (§7) Using a plate analyzer (Cytation3, BioTech Instruments Inc., Winooski, VT, USA), the optical density was determined at 530 nm. The concentration value causing 50% inhibition of cell population growth (IC50) was determined from dose-dependent curves.
# [3] = tested on: sorghum seeds; test: Pre-sowing seed treatment, sowing qualities of sorghum seeds; assay type: in vivo; settings: for germination energy: control 52.3; for laboratory germination: control 57
# Experimental: as §1, §2
# [4] = tested on: fungal microflora (mushrooms) on alfalfa seeds; test: Growth of fungal microflora on treated alfalfa seeds; assay type: cell-based
# Experimental: (§8) During phytopathological analyses of agricultural crops, the species composition of fungal and bacterial microflora was established. Laboratory studies were carried out on two nutrient media potato-agar (ingredients: potatoes—200 g; agar-agar—20 g; distilled water—1000 mL.) and potato-dextrose agar (ingredients: potatoes—200 g;dextrose—20 g; agar-agar—20 g; distilled water—1000 mL), according to the guidelines.
# When evaluating the effectiveness of treatment of wheat, alfalfa, barley, rice, and sorghum seeds as […], their effect on the suppression of seed infection was evaluated.
# [5] = tested on: barley seeds; test: Pre-sowing seed treatment, sowing qualities of barley seeds; assay type: in vivo; settings: control 95.2
# Experimental: as §1, §2
# [6] = tested on: alfalfa seeds; test: Pre-sowing seed treatment, sowing qualities of alfalfa seeds; assay type: in vivo; settings: control 76
# Experimental: as §1, §2
# [7] = tested on: HeLa (cervical tumor); test: Cell viability, MTT test; assay type: cell-based; settings: Homo sapiens, test range 0.1 to 100 μM, read-out: IC50 (concentration causing 50% inhibition of cell population growth)
# Experimental: as §3, §4, §5, §6, §7
# [8] = tested on: A549 (adenocarcinomic human alveolar basal epithelial cells); test: Cell viability, MTT test; assay type: cell-based; settings: test range 0.1 to 100 μM, read-out: IC50 (concentration causing 50% inhibition of cell population growth)
# Experimental: as §3, §4, §5, §6, §7
# [9] = tested on: Hep-2 (larynx carcinoma); test: Cell viability, MTT test; assay type: cell-based; settings: Homo sapiens, HEp-2, test range 0.1 to 100 μM, read-out: IC50 (concentration causing 50% inhibition of cell population growth)
# Experimental: as §3, §4, §5, §6, §7
# [10] = tested on: bacterial microflora on rice seeds; test: Growth of bacterial microflora on treated rice seeds; assay type: cell-based
# Experimental: as §8, §1
# [11] = tested on: SH-SY5Y (neuroblastoma); test: Cell viability, MTT test; assay type: cell-based, Human; settings: Homo sapiens, SH-SY5Y, test range 0.1 to 100 μM, read-out: IC50 (concentration causing 50% inhibition of cell population growth)
# Experimental: as §3, §4, §5, §6, §7
# [12] = tested on: wheat seeds; test: Pre-sowing seed treatment, sowing qualities of wheat seeds; assay type: in vivo; settings: for germination energy: control 82; for laboratory germination: control 85.7
# Experimental: as §1, §2
# [13] = tested on: bacterial microflora on barley seeds; test: Growth of bacterial microflora on treated barley seeds; assay type: cell-based
# Experimental: as §8, §1
compound,measurement,setting,value
"O=[N+]([O-])c1c(Cl)cc2c(no[n+]2[O-])c1NCCN1CCOCC1 [4d, 6-chloro-4-(2-(morpholino-4-ium)ethylamino)-5-nitrobenzo[c][1,2,5]oxadiazole 1-oxide chloride]",germination energy,[1]; 10 mmol,52.3%
same,laboratory germination,[1]; 10 mmol,52.3%
same,germination energy,[1]; 20 mmol,47.6%
same,laboratory germination,[1]; 20 mmol,95.2%
same,sowing qualities of seeds compared with control,[1]; 40 mmol,better results than the control
same,germination energy,[1]; 40 mmol,99%
same,laboratory germination,[1]; 40 mmol,99%
same,IC50,[2]; incubation 24 h,40.8 ± 2.84 µM
same,IC50,[2]; incubation 72 h,28.1 ± 0.93 µM
same,germination energy,[3]; 10 mmol,33.3%
same,laboratory germination,[3]; 10 mmol,40%
same,sowing qualities of seeds compared with control,[3]; 20 mmol,higher than in the control
same,germination energy,[3]; 20 mmol,76.1%
same,laboratory germination,[3]; 20 mmol,80.9%
same,germination energy,[3]; 40 mmol,58.5%
same,laboratory germination,[3]; 40 mmol,61.5%
same,effect on fungal microflora,[4]; 10 mmol,positive effect on the suppression of fungal microflora
same,effect on fungal microflora,[4]; 20 mmol,positive effect on the suppression of fungal microflora
same,germination energy,[5]; 10 mmol,71.4%
same,laboratory germination,[5]; 10 mmol,71.4%
same,germination energy,[5]; 20 mmol,66.6%
same,laboratory germination,[5]; 20 mmol,66.6%
same,germination energy,[5]; 40 mmol,95%
same,laboratory germination,[5]; 40 mmol,98.5%
same,germination energy,[6]; 10 mmol,43.3%
same,laboratory germination,[6]; 10 mmol,50%
same,germination energy,[6]; 20 mmol,63.3%
same,laboratory germination,[6]; 20 mmol,73.3%
same,germination energy,[6]; 40 mmol,78%
same,laboratory germination,[6]; 40 mmol,80.5%
same,IC50,[7]; incubation 24 h,40.5 ± 1.9 µM
same,IC50,[7]; incubation 72 h,35.47 ± 0.12 µM
same,IC50,"[8]; A549, incubation 24 h",> 100 µM
same,IC50,"[8]; A549, incubation 72 h",98.21 ± 0.1 µM
same,IC50,"[9]; Hep2, incubation 24 h",91.3 ± 1.4 µM
same,IC50,"[9]; Hep2, incubation 72 h",89.9 ± 3.12 µM
same,effect on bacterial microflora,[10]; 10 mmol,positive effect on the suppression of bacterial microflora
same,effect on bacterial microflora,[10]; 20 mmol,positive effect on the suppression of bacterial microflora
same,IC50,[11]; incubation 24 h,24.3 ± 1.91 µM
same,IC50,[11]; incubation 72 h,22.8 ± 1.9 µM
same,germination energy,[12]; 10 mmol,47.6%
same,laboratory germination,[12]; 10 mmol,47.6%
same,germination energy,[12]; 20 mmol,71.4%
same,laboratory germination,[12]; 20 mmol,71.4%
same,sowing qualities of seeds compared with control,[12]; 40 mmol,higher than in the case of controls
same,germination energy,[12]; 40 mmol,98%
same,laboratory germination,[12]; 40 mmol,98.5%
same,effect on bacterial microflora,[13]; 10 mmol,slight suppression of the bacterial microflora
same,effect on bacterial microflora,[13]; 40 mmol,slight suppression of the bacterial microflora
